Values of other authors in patent US20030114497A1 (priority 2001, published 2003).

Tests used:
[1] = tested on: smooth muscle cell migration; settings: see WO 95/25722
calcium channel = settings: see WO 95/05822

## CCOC(=O)C1=C(COCCN)NC(C)=C(C(=O)OC)[C@H]1c1ccccc1Cl (single isomer, unassigned) [R(+) isomer]
[1]
  inhibition of smooth muscle cell migration: potent inhibitor
Calcium channel
  calcium channel blocking activity: little or no calcium channel blocking activity
